Consider 23 compounds from patent US9822114B2, “Tricyclic oxazolidinone antibiotic compounds” (Idorsia Pharmaceuticals Ltd, priority 2008, dated 2017).

One experiment has as its system M. catarrhalis A894. The experiment in a line: Minimal inhibitory concentration (MIC), microdilution method in cation-adjusted Mueller-Hinton Broth (CLSI M7-A7). The experiment is classed as cell-based. To be noted: Moraxella catarrhalis, strain A894. The method, then:
Minimal inhibitory concentrations (MICs; mg/1) were determined in cation-adjusted Mueller-Hinton Broth by a microdilution method following the description given in “Methods for Dilution Antimicrobial Susceptibility Tests for Bacteria that Grow Aerobically”, Approved standard, 7th ed., Clinical and Laboratory Standards Institute (CLSI) Document M7-A7, Wayne, Pa., USA, 2006.
Compound `O=C1CSc2ccc(N3C[C@@H](CCCNC4Cn5c(=O)ccc6ccc(F)c4c65)OC3=O)nc2N1` (mixture of isomers) [Example 125, (RS)-9-fluoro-1-{3-[(R)-2-oxo-3-(3-oxo-3,4-dihydro-2H-pyrido[3,2-b][1,4]thiazin-6-yl)-oxazolidin-5-yl]-propylamino}-1,2-dihydro-pyrrolo[3,2,1-ij]quinolin-4-one] gave an MIC of no more than 0.031 µg/mL.

`O=C1CSc2ccc(N3C[C@H](CCCNC4Cn5c(=O)ccc6ccc(F)c4c65)OC3=O)nc2N1` (mixture of isomers) [Example 126, (RS)-9-fluoro-1-{3-[(S)-2-oxo-3-(3-oxo-3,4-dihydro-2H-pyrido[3,2-b][1,4]thiazin-6-yl)-oxazolidin-5-yl]-propylamino}-1,2-dihydro-pyrrolo[3,2,1-ij]quinolin-4-one] showed an MIC of no more than 0.031 µg/mL.

As for `Cc1ccc2ccc(=O)n3c2c1C(NCCC[C@@H]1CN(c2ccc4c(c2)NC(=O)CS4)C(=O)O1)C3` (mixture of isomers) [Example 152, (RS)-9-methyl-1-{3-[(R)-2-oxo-3-(3-oxo-3,4-dihydro-2H-benzo[1,4]thiazin-6-yl)-oxazolidin-5-yl]-propylamino}-1,2-dihydro-pyrrolo[3,2,1-ij]quinolin-4-one], the MIC was no more than 0.031 µg/mL.

With `CN(CCC[C@@H]1CN(c2ccc3c(c2)NC(=O)CS3)C(=O)O1)C1Cn2c(=O)ccc3ccc(F)c1c32` (mixture of isomers) [Example 153, (RS)-9-fluoro-1-(methyl-{3-[(R)-2-oxo-3-(3-oxo-3,4-dihydro-2H-benzo[1,4]thiazin-6-yl)-oxazolidin-5-yl]-propyl}-amino)-1,2-dihydro-pyrrolo[3,2,1-ij]quinolin-4-one], the MIC is no more than 0.031 µg/mL.

In the case of `O=C1COc2ccc(N3C[C@H](CCNCC4Cn5c(=O)cnc6cccc4c65)OC3=O)cc2N1` (mixture of isomers) [Example 154, (RS)-6-({2-[(S)-2-oxo-3-(3-oxo-3,4-dihydro-2H-benzo[1,4]oxazin-6-yl)-oxazolidin-5-yl]-ethylamino}-methyl)-5,6-dihydro-pyrrolo[1,2,3-de]quinoxalin-3-one], the MIC is no more than 0.031 µg/mL.

The compound `O=C1COc2ccc(N3C[C@@H](CCNCC4Cn5c(=O)cnc6cccc4c65)OC3=O)cc2N1` (mixture of isomers) [Example 155, (RS)-6-({2-[(R)-2-oxo-3-(3-oxo-3,4-dihydro-2H-benzo[1,4]oxazin-6-yl)-oxazolidin-5-yl]-ethylamino}-methyl)-5,6-dihydro-pyrrolo[1,2,3-de]quinoxalin-3-one] gave a minimal inhibitory concentration (MIC) of no more than 0.031 µg/mL.

`O=C1CSc2ccc(N3C[C@@H](CCNCC4Cn5c(=O)cnc6cccc4c65)OC3=O)cc2N1` (mixture of isomers) [Example 156, (RS)-6-({2-[(R)-2-oxo-3-(3-oxo-3,4-dihydro-2H-benzo[1,4]thiazin-6-yl)-oxazolidin-5-yl]-ethylamino}-methyl)-5,6-dihydro-pyrrolo[1,2,3-de]quinoxalin-3-one]: the MIC is no more than 0.031 µg/mL.

As to `O=C1CSc2ccc(N3C[C@H](CCNCC4(O)Cn5c(=O)ccc6ccc(F)c4c65)OC3=O)cc2N1` (mixture of isomers) [Example 174, (RS)-9-fluoro-1-hydroxy-1-({2-[(S)-2-oxo-3-(3-oxo-3,4-dihydro-2H-benzo[1,4]thiazin-6-yl)-oxazolidin-5-yl]-ethylamino}-methyl)-1,2-dihydro-pyrrolo[3,2,1-ij]quinolin-4-one], the MIC was no more than 0.031 µg/mL.

Consider `O=C1CSc2ccc(N3C[C@H](CNCC4Cn5c(=O)ccc6cccc4c65)OC3=O)nc2N1` (mixture of isomers) [Example 175, (RS)-1-({[(S)-2-oxo-3-(3-oxo-3,4-dihydro-2H-pyrido[3,2-b][1,4]thiazin-6-yl)-oxazolidin-5-ylmethyl]-amino}-methyl)-1,2-dihydro-pyrrolo[3,2,1-ij]quinolin-4-one], for which the MIC is no more than 0.031 µg/mL.

`O=C1CSc2ccc(N3C[C@H](CCNCC4Cn5c(=O)ccc6cccc4c65)OC3=O)nc2N1` (mixture of isomers) [Example 176, (RS)-1-({2-[(S)-2-oxo-3-(3-oxo-3,4-dihydro-2H-pyrido[3,2-b][1,4]thiazin-6-yl)-oxazolidin-5-yl]-ethylamino}-methyl)-1,2-dihydro-pyrrolo[3,2,1-ij]quinolin-4-one]: the MIC was no more than 0.031 µg/mL.

`O=C1CSc2ccc(N3C[C@@H](CCCNC4Cn5c(=O)ccc6ccc(Cl)c4c65)OC3=O)nc2N1` (mixture of isomers) [Example 177, (RS)-9-chloro-1-{3-[(R)-2-oxo-3-(3-oxo-3,4-dihydro-2H-pyrido[3,2-b][1,4]thiazin-6-yl)-oxazolidin-5-yl]-propylamino}-1,2-dihydro-pyrrolo[3,2,1-ij]quinolin-4-one] came in with an MIC of no more than 0.031 µg/mL.

Compound `O=C1CSc2ccc(N3C[C@@H](CCCNC4Cn5c(=O)ccc6ccc(Cl)c4c65)OC3=O)cc2N1` (mixture of isomers) [Example 178, (RS)-9-chloro-1-{3-[(R)-2-oxo-3-(3-oxo-3,4-dihydro-2H-benzo[1,4]thiazin-6-yl)-oxazolidin-5-yl]-propylamino}-1,2-dihydro-pyrrolo[3,2,1-ij]quinolin-4-one] yielded an MIC of no more than 0.031 µg/mL.

For `CCc1ccc2ccc(=O)n3c2c1C(NCCC[C@@H]1CN(c2ccc4c(c2)NC(=O)CS4)C(=O)O1)C3` (mixture of isomers) [Example 179, (RS)-9-ethyl-1-{3-[(R)-2-oxo-3-(3-oxo-3,4-dihydro-2H-benzo[1,4]thiazin-6-yl)-oxazolidin-5-yl]-propylamino}-1,2-dihydro-pyrrolo[3,2,1-ij]quinolin-4-one], the minimum inhibitory concentration (MIC) was no more than 0.031 µg/mL.

With `C#Cc1ccc2ccc(=O)n3c2c1C(NCCC[C@@H]1CN(c2ccc4c(c2)NC(=O)CS4)C(=O)O1)C3` (mixture of isomers) [Example 180, (RS)-9-ethynyl-1-{3-[(R)-2-oxo-3-(3-oxo-3,4-dihydro-2H-benzo[1,4]thiazin-6-yl)-oxazolidin-5-yl]-propylamino}-1,2-dihydro-pyrrolo[3,2,1-ij]quinolin-4-one], the MIC was no more than 0.031 µg/mL.

For `O=C1COc2ccc(N3C[C@H](CCNCC4CN5C(=O)CCc6ccc(F)c4c65)OC3=O)cc2N1` (mixture of isomers) [Example 187, (RS)-9-fluoro-1-({2-[(S)-2-oxo-3-(3-oxo-3,4-dihydro-2H-benzo[1,4]oxazin-6-yl)-oxazolidin-5-yl]-ethylamino}-methyl)-1,2,5,6-tetrahydro-pyrrolo[3,2,1-ij]quinolin-4-one], the MIC was no more than 0.031 µg/mL.

In turn, `O=C1CSc2ccc(N3C[C@@H](CCNCC4Cn5c(=O)ccc6ccc(F)c4c65)OC3=O)nc2N1` (mixture of isomers) [Example 197, (RS)-9-fluoro-1-({2-[(R)-2-oxo-3-(3-oxo-3,4-dihydro-2H-pyrido[3,2-b][1,4]thiazin-6-yl)-oxazolidin-5-yl]-ethylamino}-methyl)-1,2-dihydro-pyrrolo[3,2,1-ij]quinolin-4-one] showed an MIC of no more than 0.031 µg/mL.

`O=C1CSc2ccc(N3C[C@H](CCNCC4Cn5c(=O)ccc6ccc(F)c4c65)OC3=O)nc2N1` (mixture of isomers) [Example 198, (RS)-9-fluoro-1-({2-[(S)-2-oxo-3-(3-oxo-3,4-dihydro-2H-pyrido[3,2-b][1,4]thiazin-6-yl)-oxazolidin-5-yl]-ethylamino}-methyl)-1,2-dihydro-pyrrolo[3,2,1-ij]quinolin-4-one] yielded a minimum inhibitory concentration (MIC) of no more than 0.031 µg/mL.

With `O=C1CSc2ccc(N3C[C@@H](CCCNC4Cn5c(=O)cnc6ccc(F)c4c65)OC3=O)nc2N1` (mixture of isomers) [Example 199, (RS)-7-fluoro-6-{3-[(R)-2-oxo-3-(3-oxo-3,4-dihydro-2H-pyrido[3,2-b][1,4]thiazin-6-yl)-oxazolidin-5-yl]-propylamino}-5,6-dihydro-pyrrolo[1,2,3-de]quinoxalin-3-one], the MIC is no more than 0.031 µg/mL.

On to `O=C1CSc2ccc(N3C[C@@H](CCCNC4CN5C(=O)CNc6ccc(F)c4c65)OC3=O)nc2N1` (mixture of isomers) [Example 200, (RS)-7-fluoro-6-{3-[(R)-2-oxo-3-(3-oxo-3,4-dihydro-2H-pyrido[3,2-b][1,4]thiazin-6-yl)-oxazolidin-5-yl]-propylamino}-1,2,5,6-tetrahydro-pyrrolo[1,2,3-de]quinoxalin-3-one], for which the minimal inhibitory concentration (MIC) was no more than 0.031 µg/mL.

As to `CN1CC(=O)N2CC(NCCC[C@@H]3CN(c4ccc5c(n4)NC(=O)CS5)C(=O)O3)c3c(F)ccc1c32.Cl.Cl` (mixture of isomers) [Example 201, (RS)-7-fluoro-6-{3-[(R)-2-oxo-3-(3-oxo-3,4-dihydro-2H-pyrido[3,2-b][1,4]thiazin-6-yl)-oxazolidin-5-yl]-propylamino}-1-methyl-1,2,5,6-tetrahydro-pyrrolo[1,2,3-de]quinoxalin-3-one dihydrochloride], the MIC was no more than 0.031 µg/mL.

Consider `Cl.Cl.O=C1CSc2ccc(N3C[C@@H](CCCNC4CN5C(=O)CN(CCCO)c6ccc(F)c4c65)OC3=O)nc2N1` (mixture of isomers) [Example 202, (RS)-7-fluoro-6-{3-[(R)-2-oxo-3-(3-oxo-3,4-dihydro-2H-pyrido[3,2-b][1,4]thiazin-6-yl)-oxazolidin-5-yl]-propylamino}-1-(3-hydroxypropyl)-1,2,5,6-tetrahydro-pyrrolo[1,2,3-de]quinoxalin-3-one dihydrochloride], for which the MIC stood at 0.063 µg/mL.

With `O=C1CSc2ccc(N3C[C@@H](CCN[C@H]4Cn5c(=O)ccc6ccc(F)c4c65)OC3=O)cc2N1` (racemic) [Example 14, (1RS)-9-fluoro-1-{2-[(RS)-2-oxo-3-(3-oxo-3,4-dihydro-2H-benzo[1,4]thiazin-6-yl)-oxazolidin-5-yl]-ethylamino}-1,2-dihydro-pyrrolo[3,2,1-ij]quinolin-4-one], the MIC is no more than 0.031 µg/mL.

Still in this experiment, the particulars now being: strain A894.
For `Cc1ccc(N2C[C@@H](CCNC[C@@H]3Cn4c(=O)ccc5ccc(F)c3c54)OC2=O)cc1F` (racemic) [Example 6, (1RS)-9-fluoro-1-({2-[(RS)-3-(3-fluoro-4-methyl-phenyl)-2-oxo-oxazolidin-5-yl]-ethylamino}-methyl)-1,2-dihydro-pyrrolo[3,2,1-U]quinolin-4-one], the “MIC for M. catarrhalis A894” value was 0.125 µg/mL.
